Patent publication US4452982A, “Process for the preparation of nitrogen-bridgehead condensed pyrimidine compounds, and pharmaceutical compositions containing them” (Chinoin Gyogyszer es Vegyeszeti Termekek Gyara R.T., priority 1979, dated 1984)

Key:
[1] = tested on: allergic reactions; experiment: PCA test-method (Ovary), antiallergic activity; format: in vivo; settings: for ED50: iv
Protocol: The test is carried out by the PCA test-method (Ovary: J. Immun. 81, 355 (1958)) and the Church-test (British J. Pharm. 46, 56-66 (1972); Immunology 29, 527-534 (1975)) and for comparison disodium chromoglycate is used.

[2] = tested on: allergic symptoms; settings: antiasthmatic agent, cited from earlier work

SMILES: CC1CC=C(Nc2ccccc2)c2ncc(C(=O)O)c(=O)n21 (stereo not drawn) [9-anilino-6-methyl-4-oxo-6,7-dihydro-4H-pyrido[1,2-a]pyrimidine-3-carboxylic acid]
- ED50 [1]: 1.3 µmol/kg

SMILES: Cc1ccccc1NC1=CCC(C)n2c1ncc(C(=O)O)c2=O (stereo not drawn) [6-methyl-9-(2-methylphenylamino)-4-oxo-6,7-dihydro-4H--pyrido[1,2-a]pyrimidine-3-carboxylic acid]
- ED50 [1]: 5.4 µmol/kg

SMILES: O=C(O)c1cc(=O)c2c(OCC(O)COc3cccc4oc(C(=O)O)cc(=O)c34)cccc2o1 [disodium chromoglycolate]
- ED50 [1]: 1 µmol/kg
- oral activity / route of effectiveness ([1]; oral vs. intravenous, conclusion from Table I): effective only when administered intravenously
- effect by inhaler (background statement) ([2]; inhaler): produces the desired effect only by using an inhaler
- oral activity (background statement) ([2]; orally): not active orally
